According to patent US7115708B2 (priority 2001, dated 2006):

What was measured:
[1] = system: MIA PaCa-2; experiment: cells; conditions: Homo sapiens, MIA PaCa-2, read-out: Estimated IC50 (50% Inhibition Concentration)
[2] = system: MCF-7
[3] = system: MCF-7; experiment: cells; conditions: Homo sapiens, MCF7, read-out: Estimated IC50 (50% Inhibition Concentration)
[4] = system: MIA PaCa-2
[5] = system: tumor patients; conditions: in vivo; cited from earlier work

| Compound | IC50 [1] | Estimated TGI (Total Growth Inhibition) [2] | IC50 [3] | Estimated TGI (Total Growth Inhibition) [4] | patients with stable tumor disease [5] | toxicity reported [5] | tumor patients with regressive disease [5] |
| --- | --- | --- | --- | --- | --- | --- | --- |
| CO[C@@]12[C@H](COC(N)=O)C3=C(C(=O)C(C)=C(N)C3=O)N1C[C@@H]1N[C@@H]12 [Mitomycin] | 28 nM | 180 nM | 35 nM | 150 nM | – | – | – |
| ^90Y-DOTA-lanreotide | – | – | – | – | roughly 35% | No acute or chronic severe hematological toxicity | 15% |
